# Measured values reported in US20230257396A1, “MACROCYCLES AND THEIR USE” (BLOSSOMHILL THERAPEUTICS, INC., priority 2020, published 2023).
# Tests used:
# Assay in all cases: KINOMEscan kinase binding assay (Eurofins/DiscoveRx), % Ctrl
# kinases [1] = molecular target: T1, kinases (Homo sapiens, UniProt P00519, M351T)
# T1 construct: purchased Eurofins/DiscoveRx; host or cells: E. coli BL21-derived host (T7 phage display) for most kinases; HEK-293 for the rest
# Description: (§1) Kinase binding assays were performed at Eurofins/DiscoveRx using the general KINOMEscan Protocol (Fabian, M. A. et al., “A small molecule-kinase interaction map for clinical kinase inhibitors,” Nat. Biotechnol. 2005, 23(3):329-36). For most assays, kinase-tagged T7 phage strains were prepared in an E. coli host derived from the BL21 strain. E. coli were grown to log-phase and infected with T7 phage and incubated with shaking at 32° C. until lysis. The lysates were centrifuged and filtered to remove cell debris. The remaining kinases were produced in HEK-293 cells and subsequently tagged with DNA for qPCR detection. Streptavidin-coated magnetic beads were treated with biotinylated small molecule ligands for 30 minutes at room temperature to generate affinity resins for kinase assays. The liganded beads were blocked with excess biotin and washed with blocking buffer (SeaBlock (Pierce), 1% BSA, 0.05% Tween 20, 1 mM DTT) to remove unbound ligand and to reduce nonspecific binding. Binding reactions were assembled by combining kinases, liganded affinity beads, and test compounds in 1×binding buffer (20% SeaBlock, 0.17×PBS, 0.05% Tween 20, 6 mM DTT). All reactions were performed in polystyrene 96-well plates in a final volume of 0.135 mL. The assay plates were incubated at room temperature with shaking for 1 hour and the affinity beads were washed with washbuffer (1×PBS, 0.05% Tween 20). The beads were then re-suspended in elution buffer (1× PBS, 0.05% Tween 20, 0.5 μM non-biotinylated affinity ligand) and incubated at room temperature with shaking for 30 minutes. The kinase concentration in the eluates was measured by qPCR. Results for compounds tested in this assay at a given concentration are reported as “% Ctrl”, where lower numbers indicate stronger binding in the matrix.
# (§2) (test compound signal-positive control signal)/(negative control signal-positive control signal) X100
# kinases [2] = molecular target: T2, kinases (Homo sapiens, UniProt P00533, L858R/T790M)
# T2 construct: purchased Eurofins/DiscoveRx; host or cells: E. coli BL21-derived host (T7 phage display) for most kinases; HEK-293 for the rest
# Description: as §1, §2
# kinases [3] = molecular target: T3, kinases (Homo sapiens, UniProt P07949, V804M)
# T3 construct: purchased Eurofins/DiscoveRx; host or cells: E. coli BL21-derived host (T7 phage display) for most kinases; HEK-293 for the rest
# Description: as §1, §2
# kinases [4] = molecular target: T4, kinases (Homo sapiens, UniProt P10721, L576P)
# T4 construct: purchased Eurofins/DiscoveRx; host or cells: E. coli BL21-derived host (T7 phage display) for most kinases; HEK-293 for the rest
# Description: as §1, §2
# kinases [5] = molecular target: T5, kinases (Homo sapiens, UniProt P10721, T670I/V559D)
# T5 construct: purchased Eurofins/DiscoveRx; host or cells: E. coli BL21-derived host (T7 phage display) for most kinases; HEK-293 for the rest
# Description: as §1, §2
# kinases [6] = molecular target: T6, kinases (Homo sapiens, UniProt P17948)
# T6 construct: purchased Eurofins/DiscoveRx; host or cells: E. coli BL21-derived host (T7 phage display) for most kinases; HEK-293 for the rest
# Description: as §1, §2
# kinases [7] = molecular target: T7, kinases (Homo sapiens, UniProt P35916)
# T7 construct: purchased Eurofins/DiscoveRx; host or cells: E. coli BL21-derived host (T7 phage display) for most kinases; HEK-293 for the rest
# Description: as §1, §2
# kinases [8] = molecular target: T8, kinases (Homo sapiens, UniProt P36888, D835Y)
# T8 construct: purchased Eurofins/DiscoveRx; host or cells: E. coli BL21-derived host (T7 phage display) for most kinases; HEK-293 for the rest
# T8 sequence (P36888 27-993 D835Y): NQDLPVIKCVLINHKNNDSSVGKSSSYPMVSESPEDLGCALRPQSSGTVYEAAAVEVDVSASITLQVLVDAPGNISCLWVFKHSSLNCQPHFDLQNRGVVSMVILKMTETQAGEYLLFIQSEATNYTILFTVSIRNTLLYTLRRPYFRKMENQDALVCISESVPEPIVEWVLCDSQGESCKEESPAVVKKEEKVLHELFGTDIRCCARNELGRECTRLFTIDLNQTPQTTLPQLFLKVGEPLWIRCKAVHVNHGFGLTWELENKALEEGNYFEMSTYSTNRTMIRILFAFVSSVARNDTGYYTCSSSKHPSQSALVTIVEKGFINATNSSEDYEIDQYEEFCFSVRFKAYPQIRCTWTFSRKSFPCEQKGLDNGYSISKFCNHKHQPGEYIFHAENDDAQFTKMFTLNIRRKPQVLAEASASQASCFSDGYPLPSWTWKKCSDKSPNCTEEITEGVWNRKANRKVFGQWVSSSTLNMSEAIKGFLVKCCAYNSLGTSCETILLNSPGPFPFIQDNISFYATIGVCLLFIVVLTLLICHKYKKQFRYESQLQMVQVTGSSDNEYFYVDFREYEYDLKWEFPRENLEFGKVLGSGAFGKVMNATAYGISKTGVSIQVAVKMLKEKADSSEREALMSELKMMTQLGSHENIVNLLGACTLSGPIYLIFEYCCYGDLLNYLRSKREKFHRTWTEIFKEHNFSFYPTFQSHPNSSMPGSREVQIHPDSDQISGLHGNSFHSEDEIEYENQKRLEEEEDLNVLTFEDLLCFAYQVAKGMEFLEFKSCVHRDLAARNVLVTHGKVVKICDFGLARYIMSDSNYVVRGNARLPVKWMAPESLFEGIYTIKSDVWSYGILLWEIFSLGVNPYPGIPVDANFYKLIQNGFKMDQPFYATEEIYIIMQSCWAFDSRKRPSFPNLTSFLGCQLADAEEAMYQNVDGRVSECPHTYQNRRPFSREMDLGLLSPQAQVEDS
# Description: as §1, §2
# [9] = target ABL1(M351T)-phosphorylated; 1 μM
# [10] = target EGFR(L858R, T790M); 1 μM
# T6 sequence (P17948 27-1338): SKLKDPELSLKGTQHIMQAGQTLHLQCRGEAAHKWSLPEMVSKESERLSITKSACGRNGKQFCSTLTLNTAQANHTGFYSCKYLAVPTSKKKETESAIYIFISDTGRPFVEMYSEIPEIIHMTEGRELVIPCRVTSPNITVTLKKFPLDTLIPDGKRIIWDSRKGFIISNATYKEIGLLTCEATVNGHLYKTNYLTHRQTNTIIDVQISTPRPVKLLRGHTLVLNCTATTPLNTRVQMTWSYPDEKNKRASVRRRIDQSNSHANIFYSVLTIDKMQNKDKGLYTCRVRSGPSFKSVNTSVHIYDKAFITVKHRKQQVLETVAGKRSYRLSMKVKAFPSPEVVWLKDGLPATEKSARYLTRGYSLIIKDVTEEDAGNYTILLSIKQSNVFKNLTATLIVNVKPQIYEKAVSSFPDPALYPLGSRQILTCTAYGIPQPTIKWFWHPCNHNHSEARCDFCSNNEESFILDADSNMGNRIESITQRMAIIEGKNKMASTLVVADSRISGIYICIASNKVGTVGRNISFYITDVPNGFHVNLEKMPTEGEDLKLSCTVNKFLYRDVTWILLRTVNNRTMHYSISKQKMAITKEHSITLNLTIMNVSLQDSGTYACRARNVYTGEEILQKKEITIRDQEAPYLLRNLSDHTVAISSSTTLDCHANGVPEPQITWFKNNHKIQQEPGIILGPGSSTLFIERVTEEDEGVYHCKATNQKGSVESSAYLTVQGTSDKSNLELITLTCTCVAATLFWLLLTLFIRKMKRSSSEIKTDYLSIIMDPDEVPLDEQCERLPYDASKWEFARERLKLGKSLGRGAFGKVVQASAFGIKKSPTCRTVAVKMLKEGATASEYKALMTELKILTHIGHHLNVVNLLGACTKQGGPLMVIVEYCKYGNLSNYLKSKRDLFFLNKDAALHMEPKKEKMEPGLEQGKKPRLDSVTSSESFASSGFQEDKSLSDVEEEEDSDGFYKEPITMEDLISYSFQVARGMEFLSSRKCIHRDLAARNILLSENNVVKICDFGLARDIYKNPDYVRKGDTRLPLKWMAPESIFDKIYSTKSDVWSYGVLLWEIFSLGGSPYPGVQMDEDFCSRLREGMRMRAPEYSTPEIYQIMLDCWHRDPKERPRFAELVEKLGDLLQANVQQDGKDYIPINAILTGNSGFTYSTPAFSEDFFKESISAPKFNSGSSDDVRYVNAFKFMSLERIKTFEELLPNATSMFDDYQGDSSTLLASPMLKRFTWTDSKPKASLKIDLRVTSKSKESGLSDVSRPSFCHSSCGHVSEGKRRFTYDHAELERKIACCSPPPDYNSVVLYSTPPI
# T5 sequence (P10721 26-976 V559D/T670I): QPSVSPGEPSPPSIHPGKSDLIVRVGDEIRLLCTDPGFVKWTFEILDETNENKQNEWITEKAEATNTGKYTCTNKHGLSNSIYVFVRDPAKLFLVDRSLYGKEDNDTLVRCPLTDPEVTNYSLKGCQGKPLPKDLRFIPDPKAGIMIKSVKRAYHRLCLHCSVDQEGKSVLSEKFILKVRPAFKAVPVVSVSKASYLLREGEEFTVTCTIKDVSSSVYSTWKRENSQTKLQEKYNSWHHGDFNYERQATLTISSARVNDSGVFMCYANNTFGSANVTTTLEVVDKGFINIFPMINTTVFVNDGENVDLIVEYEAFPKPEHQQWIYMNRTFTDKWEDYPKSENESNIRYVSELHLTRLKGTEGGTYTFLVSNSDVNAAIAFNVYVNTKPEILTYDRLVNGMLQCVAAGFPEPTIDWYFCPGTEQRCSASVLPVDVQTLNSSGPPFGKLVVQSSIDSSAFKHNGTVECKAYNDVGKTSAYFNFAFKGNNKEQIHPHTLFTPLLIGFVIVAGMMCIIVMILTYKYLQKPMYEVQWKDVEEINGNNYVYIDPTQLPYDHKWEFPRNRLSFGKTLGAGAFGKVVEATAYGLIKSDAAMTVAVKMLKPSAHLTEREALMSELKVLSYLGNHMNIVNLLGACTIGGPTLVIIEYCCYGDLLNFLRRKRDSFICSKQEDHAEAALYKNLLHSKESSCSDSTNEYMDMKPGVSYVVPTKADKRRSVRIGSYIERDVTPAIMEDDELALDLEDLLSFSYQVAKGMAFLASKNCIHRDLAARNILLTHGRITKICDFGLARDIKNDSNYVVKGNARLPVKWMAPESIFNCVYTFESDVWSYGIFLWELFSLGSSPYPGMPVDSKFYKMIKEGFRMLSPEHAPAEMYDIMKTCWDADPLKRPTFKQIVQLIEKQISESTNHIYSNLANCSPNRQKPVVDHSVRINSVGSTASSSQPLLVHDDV
# T3 sequence (P07949 29-1114 V804M): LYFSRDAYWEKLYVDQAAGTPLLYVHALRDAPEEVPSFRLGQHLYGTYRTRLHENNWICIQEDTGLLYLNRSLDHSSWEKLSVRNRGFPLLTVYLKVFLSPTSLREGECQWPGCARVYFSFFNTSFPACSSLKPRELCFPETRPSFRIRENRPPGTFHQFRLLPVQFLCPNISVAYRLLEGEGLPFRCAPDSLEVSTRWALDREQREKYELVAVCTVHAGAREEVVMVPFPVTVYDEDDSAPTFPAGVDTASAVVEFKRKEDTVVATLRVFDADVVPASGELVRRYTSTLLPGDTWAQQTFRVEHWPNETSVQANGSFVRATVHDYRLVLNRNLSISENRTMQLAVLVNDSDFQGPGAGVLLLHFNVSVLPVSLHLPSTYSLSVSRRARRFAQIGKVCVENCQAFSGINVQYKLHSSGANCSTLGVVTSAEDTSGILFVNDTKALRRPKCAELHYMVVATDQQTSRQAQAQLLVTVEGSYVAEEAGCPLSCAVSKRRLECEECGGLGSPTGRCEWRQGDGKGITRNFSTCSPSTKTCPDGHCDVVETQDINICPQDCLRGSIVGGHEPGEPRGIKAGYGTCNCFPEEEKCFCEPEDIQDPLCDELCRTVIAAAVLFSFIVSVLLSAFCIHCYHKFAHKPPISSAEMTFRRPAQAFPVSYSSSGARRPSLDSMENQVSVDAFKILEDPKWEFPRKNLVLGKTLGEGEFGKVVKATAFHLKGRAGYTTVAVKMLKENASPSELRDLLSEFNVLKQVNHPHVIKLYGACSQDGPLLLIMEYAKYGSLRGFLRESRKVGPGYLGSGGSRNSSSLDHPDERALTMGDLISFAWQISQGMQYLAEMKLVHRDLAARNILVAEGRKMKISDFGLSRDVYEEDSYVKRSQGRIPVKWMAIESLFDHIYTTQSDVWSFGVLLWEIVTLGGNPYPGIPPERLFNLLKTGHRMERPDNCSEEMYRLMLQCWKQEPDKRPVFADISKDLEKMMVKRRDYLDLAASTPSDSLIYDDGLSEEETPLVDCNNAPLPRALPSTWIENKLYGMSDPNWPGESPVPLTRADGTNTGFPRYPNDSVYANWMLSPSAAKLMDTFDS
# T4 sequence (P10721 26-976 L576P): as the sequence (P10721 26-976 V559D/T670I) above, with D534V, L551P, I645T counted along it
# T7 sequence (P35916 25-1363): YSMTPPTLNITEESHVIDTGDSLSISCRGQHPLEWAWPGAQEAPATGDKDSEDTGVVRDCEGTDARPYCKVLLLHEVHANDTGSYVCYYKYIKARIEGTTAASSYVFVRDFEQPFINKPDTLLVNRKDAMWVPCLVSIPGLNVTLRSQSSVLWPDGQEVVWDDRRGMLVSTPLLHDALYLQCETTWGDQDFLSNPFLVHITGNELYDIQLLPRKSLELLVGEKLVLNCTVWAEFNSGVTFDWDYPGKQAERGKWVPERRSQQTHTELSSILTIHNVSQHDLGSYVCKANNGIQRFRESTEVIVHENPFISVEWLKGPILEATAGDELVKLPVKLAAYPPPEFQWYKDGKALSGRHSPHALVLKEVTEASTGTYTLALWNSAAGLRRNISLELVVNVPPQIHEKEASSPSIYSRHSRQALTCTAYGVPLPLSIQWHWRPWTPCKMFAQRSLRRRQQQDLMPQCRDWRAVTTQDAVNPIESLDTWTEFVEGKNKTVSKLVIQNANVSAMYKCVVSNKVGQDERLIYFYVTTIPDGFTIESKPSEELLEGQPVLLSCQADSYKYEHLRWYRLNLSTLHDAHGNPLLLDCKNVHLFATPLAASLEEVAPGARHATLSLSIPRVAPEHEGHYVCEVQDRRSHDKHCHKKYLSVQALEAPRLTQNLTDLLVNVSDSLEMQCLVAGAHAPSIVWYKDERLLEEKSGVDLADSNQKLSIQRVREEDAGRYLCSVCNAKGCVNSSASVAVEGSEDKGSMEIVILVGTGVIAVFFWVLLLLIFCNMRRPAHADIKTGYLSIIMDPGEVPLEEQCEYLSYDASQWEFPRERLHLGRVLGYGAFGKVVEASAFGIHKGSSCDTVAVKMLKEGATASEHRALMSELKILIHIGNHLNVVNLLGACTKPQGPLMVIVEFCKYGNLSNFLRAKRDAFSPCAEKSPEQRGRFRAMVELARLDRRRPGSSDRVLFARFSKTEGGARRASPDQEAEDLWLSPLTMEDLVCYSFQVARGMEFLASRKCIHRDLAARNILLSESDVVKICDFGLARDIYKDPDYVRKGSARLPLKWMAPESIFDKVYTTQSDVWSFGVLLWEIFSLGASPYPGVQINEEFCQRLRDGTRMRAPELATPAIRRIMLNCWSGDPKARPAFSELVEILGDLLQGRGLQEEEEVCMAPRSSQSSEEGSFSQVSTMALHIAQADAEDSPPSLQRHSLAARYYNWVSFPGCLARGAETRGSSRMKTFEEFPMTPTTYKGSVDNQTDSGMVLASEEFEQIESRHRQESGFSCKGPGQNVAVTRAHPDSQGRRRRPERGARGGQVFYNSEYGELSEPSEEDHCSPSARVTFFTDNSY
SMILES,"% Ctrl, ABL1(M351T)-phosphorylated (kinases [1]; [9])","% Ctrl, EGFR(L858R, T790M) (kinases [2]; [10])","% Ctrl, RET(V804M) (kinases [3]; target RET(V804M); 1 μM)","% Ctrl, KIT(L576P) (kinases [4]; target KIT(L576P); 1 μM)","% Ctrl, KIT(V559D, T670I) (kinases [5]; target KIT(V559D, T670I); 1 μM)","% Ctrl, FLT1 (kinases [6]; target FLT1; 1 μM)","% Ctrl, FLT4 (kinases [7]; target FLT4; 1 μM)","% Ctrl, FLT3(D835Y) (kinases [8]; target FLT3(D835Y); 1 μM)","% Ctrl, ABL1(M351T)-phosphorylated (kinases [1]; 1 μM; target ABL1(M351T)-phosphorylated)","% Ctrl, EGFR(L858R, T790M) (kinases [2]; 1 μM; target EGFR(L858R, T790M))","% Ctrl, RET(V804M) (kinases [3]; 1 μM; target RET(V804M))","% Ctrl, KIT(L576P) (kinases [4]; 1 μM; target KIT(L576P))","% Ctrl, KIT(V559D, T670I) (kinases [5]; 1 μM; target KIT(V559D, T670I))","% Ctrl, FLT1 (kinases [6]; 1 μM; target FLT1)","% Ctrl, FLT4 (kinases [7]; 1 μM; target FLT4)","% Ctrl, FLT3(D835Y) (kinases [8]; 1 μM; target FLT3(D835Y))"
"CN1CCOCCOc2cc3c(cc2Cl)NC(=O)/C3=C\c2[nH]ccc2C1=O [Ex. 143, [16a(17)Z]-19-chloro-2,5-dimethyl-6,7,9,10-tetrahydro-1H-12,14-(ethanediylidene)dipyrrolo[3,2-i:3′,4′-l][1,4,7]oxathiazacyclopentadecine-4,16(5H,15H)-dione]",13 % Ctrl,75 % Ctrl,31 % Ctrl,0 % Ctrl,1.6 % Ctrl,11 % Ctrl,39 % Ctrl,3.1 % Ctrl,,,,,,,,
"Cc1cc2c([nH]1)/C=C1\C(=O)Nc3ccc(cc31)-c1c(C)nn(C)c1COCCN(C)C2=O [Ex. 146, [3a(4)Z]-6,9,14,16-tetramethyl-10,11,13,14-tetrahydro-2H-1,17-(ethanediylidene)pyrazolo[4,3-m]dipyrrolo[3,2-f:3′,4′-i][1,4]oxazacyclopentadecine-3,8(5H,9H)-dione]",67 % Ctrl,43 % Ctrl,12 % Ctrl,90 % Ctrl,75 % Ctrl,100 % Ctrl,78 % Ctrl,22 % Ctrl,,,,,,,,
"Cc1nn(C)c2c1-c1ccc3c(c1)/C(=C/c1[nH]ccc1C(=O)N(C)CCCO2)C(=O)N3 [Ex. 150, [3a(4)Z]-9,14,16-trimethyl-10,11,13,14-tetrahydro-2H-1,17-(ethanediylidene)pyrazolo[4,3-m]dipyrrolo[3,2-f:3′,4′-i][1,4]oxazacyclopentadecine-3,8(5H,9H)-dione]",94 % Ctrl,83 % Ctrl,68 % Ctrl,94 % Ctrl,97 % Ctrl,100 % Ctrl,95 % Ctrl,67 % Ctrl,,,,,,,,
CN1CCSCCOc2cc3c(cc2Cl)NC(=O)/C3=C\c2[nH]ccc2C1=O [Ex. 153],9.5 % Ctrl,79 % Ctrl,41 % Ctrl,0.1 % Ctrl,0.3 % Ctrl,3.5 % Ctrl,11 % Ctrl,1.7 % Ctrl,,,,,,,,
"Cc1cc2c([nH]1)/C=C1\C(=O)Nc3ccc(cc31)-c1c(noc1C(C)C)COCCN(C)C2=O [Ex. 161, [3a(4)Z]-9-methyl-16-(propan-2-yl)-10,11-dihydro-2H,13H-1,17-(ethanediylidene)[1,2]oxazolo[4,3-m]dipyrrolo[3,2-f:3′,4′-i][1,4]oxazacyclopentadecine-3,8(5H,9H)-dione]",,,,,,,,,81 % Ctrl,96 % Ctrl,83 % Ctrl,100 % Ctrl,95 % Ctrl,82 % Ctrl,79 % Ctrl,36 % Ctrl
